We go through 1 molecule from US20090318492A1, “INDOLE COMPOUNDS HAVING C4-ACIDIC SUBSTITUENTS AND USE THEREOF AS PHOSPHOLIPASE-A2 INHIBITORS” (priority 2005, published 2009).

SMILES strings stand for the structures.

For test [1], the target named is T1, mouse group 1B PLA2 (mps PLA2) (Mus musculus, UniProt Q9Z0Y2).
T1 construct: made in house; host or cells: E. coli
Put plainly: Example 8 fluorimetric PLA2 inhibition assay (PPyrPM), mouse enzyme. The format is biochemical. The text has this: In this example, a fluorimetric assay procedure was used to evaluate the indole and indole-related compounds of the invention as inhibitors of group 1B phospholipase A2 (PLA2) from human, mouse and porcine. A description of this assay is found in articles: Leslie, C C and Gelb, M H (2004) Methods in Molecular Biology “Assaying phospholipase A2 activity”, 284:229-242; Singer, A G, et al. (2002) Journal of Biological Chemistry “Interfacial kinetic and binding properties of the complete set of human and mouse groups I, II, V, X, and XII secreted phospholipases A2”, 277:48535-48549, which are incorporated herein as references.
In general, this assay used a phosphatidylmethanol substrate with a pyrene fluorophore on the terminal end of the sn-2 fatty acyl chain. Without being bound by theory, close proximity of the pyrenes from neighboring phospholipids in a phospholipid vesicle caused the spectral properties to change relative to that of monomeric pyrene. Bovine serum albumin was present in the aqueous phase and captured the pyrene fatty acid when it is liberated from the glycerol backbone owing to the PLA2-catalyzed reaction. However, a potent inhibitor can inhibit the liberation of pyrene fatty acid from the glycerol backbone. […] The effect of a given inhibitor and inhibitor concentration on human, mouse and porcine phospholipase was determined.
Recombinant human and mouse group 1B PLA2 were cloned and expressed in E. coli as insoluble inclusion bodies. The inclusion bodies were isolated and purified by sonicating cell pellet in lysis buffer (50 mM Tris-HCl pH 7.0, 250 mM NaCl, 0.5% Triton 100), centrifugation at 12,000×g, and washing three times in washing buffer (20 mM Tris-HCl pH 7.0, 250 mM NaCl, 0.5% Triton 100). […]
The following procedure was performed to evaluate the inhibitory potency of the evaluated compounds. • 1. […]

The test system of test [2] is C57BL/6J mouse model of obesity. Put plainly: Example 10 mouse diet-induced obesity. It counts as in vivo. Conditions: low fat control diet (D12328) with vs without test article. The text has this: The high-fat diet-fed C57BL/6J mouse model of human diabetes, originally introduced by Surwit and colleagues (Surwit, R S, et al. (1988) “Diet-induced type […] diabetes in C57BL/6J mice”, Diabetes 37: 1163-1167) is a widely accepted, clinically relevant, polygenic model that induces obesity, dyslipidemia, glucose- and insulin-resistance as early as 3 weeks after commencing the high fat diet (Winzell, M S and Ahren, B (2004) “The high-fat diet-fed mouse: a model for studying mechanisms and treatment of impaired glucose tolerance and type 2 diabetes”, Diabetes 53 Suppl 3: S215-219). This model was used to investigate the effects of indole and indole-related Test Articles. Avandia (rosiglitazone) was used as a control Test Article. […]
In these studies and the accompanying figures, Diet D12328 from Research Diets is referred to as the “Low Fat” or Control diet/chow, while Diet D12331 from Research Diets is referred to as the “High Fat” diet. […] The Test Article content was calculated such that ad libitum consumption by the animals would deliver doses (in mg of Test Article per kg animal weight per day) approximating those listed in Table 5.
Animals were maintained on the diets for up to eleven weeks. Body weights were recorded weekly. […] The serum was analyzed for glucose, total cholesterol, triglycerides (TG) and lysophospholipid (LPC) content. […]

T1 sequence (Q9Z0Y2 23-146): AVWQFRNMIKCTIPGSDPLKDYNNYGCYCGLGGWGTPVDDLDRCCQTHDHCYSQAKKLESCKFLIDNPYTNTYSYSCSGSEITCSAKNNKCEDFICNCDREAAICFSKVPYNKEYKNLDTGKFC

For orientation: IC50 means the concentration needed to halve the response being measured. As for `Cc1c(C(=O)C(N)=O)c2c(OCC(=O)NS(=O)(=O)CCCC(=O)O)cccc2n1Cc1ccccc1` [ILY-IV-40, 4-[2-(3-Aminooxalyl-1-benzyl-2-methyl-1H-indol-4-yloxy)-acetylsulfamoyl]-butyric acid], 1360 nM corresponded to half-maximal inhibition in test [1] (IC50). The “effect in animals fed a low fat control diet” value in test [2] is given as “No or little effect”.
